Measurements taken from ChEMBL document CHEMBL1145982, “Novel dihydrofolate reductase inhibitors. Structure-based versus diversity-based library design and high-throughput synthesis and screening” (J Med Chem, 2003).
Converted amounts (≈) assume the structure as drawn.

How the values were obtained:
Homo sapiens = species: Homo sapiens; experiment: Selectivity ratio against human and […] ATCC 49619 dihydrofolate reductase
[1] = biological target: T1, Dihydrofolate reductase (Homo sapiens) (UniProt P00374); conditions: Staphylococcus
T1 sequence (whole entry): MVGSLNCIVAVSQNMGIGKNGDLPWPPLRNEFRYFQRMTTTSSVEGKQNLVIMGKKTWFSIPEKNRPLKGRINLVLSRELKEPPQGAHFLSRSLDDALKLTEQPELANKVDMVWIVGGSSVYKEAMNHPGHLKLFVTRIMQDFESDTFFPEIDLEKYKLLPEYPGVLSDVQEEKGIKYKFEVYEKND
Description: Inhibitory activity of TMP-Resistance Dihydrofolate reductase against Staphylococcus aureus 157/4696

[2] = biological target: T1, Dihydrofolate reductase (Homo sapiens); conditions: Staphylococcus; ATCC 49619
Description: Antibacterial activity of TMP-susceptible DHFR against Staphylococcus pneumoniae ATCC 49619

[3] = biological target: Dihydrofolate reductase (Staphylococcus aureus) (UniProt P0A017)
Sequence of Dihydrofolate reductase (Staphylococcus aureus) (P0A017 2-159 limits assumed): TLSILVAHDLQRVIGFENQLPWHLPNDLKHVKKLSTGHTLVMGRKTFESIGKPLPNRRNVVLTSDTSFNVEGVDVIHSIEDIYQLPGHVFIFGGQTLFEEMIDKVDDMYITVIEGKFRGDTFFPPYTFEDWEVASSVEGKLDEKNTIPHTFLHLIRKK
Description: Tested for inhibition of TMP-Resistant Dihydrofolate reductase from Staphylococcus pneumoniae 1/1.

[4] = biological target: T1, Dihydrofolate reductase (Homo sapiens); conditions: Staphylococcus; ATCC 49619; remark: listed apart in the source
Description: Antibacterial activity against TMP-susceptible DHFR from Staphylococcus pneumoniae ATCC 49619

[5] = biological target: T1, Dihydrofolate reductase (Homo sapiens); conditions: Staphylococcus; remark: listed apart in the source
Description: Antibacterial activity against TMP-Resistant Dihydrofolate reductase from Staphylococcus aureus 157/4696

Dihydrofolate reductase [6] = biological target: T2, Dihydrofolate reductase (Staphylococcus aureus, UniProt P0A017); experiment: Tested for inhibition of TMP-Resistant Dihydrofolate reductase from Staphylococcus aureus 157/4696.
T2 sequence (P0A017 2-159 limits assumed): as above

Dihydrofolate reductase [7] = biological target: T2, Dihydrofolate reductase; experiment: Inhibitory activity of TMP-Resistance DHFR against Staphylococcus aureus 157/4696
Dihydrofolate reductase [8] = biological target: T2, Dihydrofolate reductase; experiment: Inhibitory activity against TMP-Resistance Dihydrofolate reductase from Staphylococcus aureus 157/4696

Compound `COc1ccc2c(c1)CN(Cc1cnc(N)nc1N)CC2c1cccc([N+](=O)[O-])c1` (centres undefined) has a Ratio (Homo sapiens) of 16700.

In the case of `CSc1c2n(c3cc(Cl)ccc13)CCN(Cc1cnc(N)nc1N)C2`, the Ratio (Homo sapiens) is reported as 2600.

With `CC1c2ccc3c4ccccc4n(C)c3c2CCN1Cc1cnc(N)nc1N` (centres undefined) the Ratio (Homo sapiens) was 21.

With `COc1cc2c(cc1OC)CN(Cc1cnc(N)nc1N)CC2` the MIC [1] was 4 µg/mL (≈ 12.7 µM), the MIC [2] was 0.5 µg/mL (≈ 1.59 µM) and the MIC [3] was greater than 32 µg/mL. The MIC [4] was 0.5 µg/mL (≈ 1.59 µM), the MIC [5] was 4 µg/mL (≈ 12.7 µM) and the IC50 (Dihydrofolate reductase [6]) was greater than 100 µM. It also gave an IC50 (Dihydrofolate reductase [7]) of 30 µM.

`COc1cc2c(c3c1OCO3)[C@@H](C)N(Cc1cnc(N)nc1N)CC2` was tested, and the IC50 (Dihydrofolate reductase [8]) was 1.3 µM.

`COc1cc2c(cc1OC)C(C)N(Cc1cnc(N)nc1N)CC2` (centres undefined) showed a Ratio (Homo sapiens) of 15.

With `CC1c2cc(Cc3ccccc3)c(-c3ccccc3)n2CCN1Cc1cnc(N)nc1N` (centres undefined) the Ratio (Homo sapiens) was 40.

`Nc1ncc(CN2CCc3ccccc3C2)c(N)n1` gave a Ratio (Homo sapiens) greater than 90 and an IC50 (Dihydrofolate reductase [8]) of 40 µM.

In the case of `COc1cc2c(c3c1OCO3)[C@H](C)N(Cc1cnc(N)nc1N)CC2`, the IC50 (Dihydrofolate reductase [8]) is reported as 5.4 µM.

`COc1cc2c(cc1OC)C(c1ccc(Cl)cc1Cl)CN(Cc1cnc(N)nc1N)C2` (centres undefined) was tested, and the Ratio (Homo sapiens) was 243 and the IC50 (Dihydrofolate reductase [8]) was 2 µM.

`Nc1ncc(CN2CCc3c([nH]c4ccccc34)C2)c(N)n1` was tested, and the Ratio (Homo sapiens) was 45000.
